Data reported in PMC4416488 (Bioorganic & medicinal chemistry letters, 2015).

Columns and labels:
tubulin = assay: Inhibition of tubulin assembly
[1] = system: A549 human lung cancer cell line; assay: Cytotoxic activity against A549 lung cancer cell line

Q: COC(=O)Nc1nc2ccc(/C=C\c3cc(OC)c(OC)c(OC)c3)cc2[nH]1 [Compound 1] was tested. Which “Activity as tubulin polymerization/assembly inhibitor (in words)” value (tubulin) did it give?
A: Its value is “excellent activities”.

Q: For COC(=O)Nc1nc2ccc(C(=O)c3ccc(OC)cc3O)cc2[nH]1 [Compound 2], which “Cytotoxic activity against A549 cell line (in words)” value [1] is on record?
A: The value was “no activity”.

Q: What about the “Activity as tubulin polymerization/assembly inhibitor (in words)” value (tubulin) of the same compound?
A: The value was “excellent activities”.

Q: Which “Activity as tubulin polymerization/assembly inhibitor (in words)” value (tubulin) does the source give for COC(=O)Nc1nc2ccc(C(=O)c3sccc3O)cc2[nH]1 [Compound 4] here?
A: Its value is “excellent activities”.

Q: With COC(=O)Nc1nc2ccc(C(=O)c3ccc(O)cc3O)cc2[nH]1 [Compound 3] as the compound, how does the “Cytotoxic activity against A549 cell line (in words)” value [1] read?
A: The value was “no activity”.

Q: What about the “Activity as tubulin polymerization/assembly inhibitor (in words)” value (tubulin) of the same compound?
A: Its value is “inactive”.
